The values that follow come from the Kinase Knowledgebase extract (Sharma et al. 2016).

For one assay, the target named is CDK2 (UniProt P24941). Description: Enzyme Assay.
A further assay has as its target EGFR (UniProt P00533).

EGFR, sequence (P00533 whole entry, looked up): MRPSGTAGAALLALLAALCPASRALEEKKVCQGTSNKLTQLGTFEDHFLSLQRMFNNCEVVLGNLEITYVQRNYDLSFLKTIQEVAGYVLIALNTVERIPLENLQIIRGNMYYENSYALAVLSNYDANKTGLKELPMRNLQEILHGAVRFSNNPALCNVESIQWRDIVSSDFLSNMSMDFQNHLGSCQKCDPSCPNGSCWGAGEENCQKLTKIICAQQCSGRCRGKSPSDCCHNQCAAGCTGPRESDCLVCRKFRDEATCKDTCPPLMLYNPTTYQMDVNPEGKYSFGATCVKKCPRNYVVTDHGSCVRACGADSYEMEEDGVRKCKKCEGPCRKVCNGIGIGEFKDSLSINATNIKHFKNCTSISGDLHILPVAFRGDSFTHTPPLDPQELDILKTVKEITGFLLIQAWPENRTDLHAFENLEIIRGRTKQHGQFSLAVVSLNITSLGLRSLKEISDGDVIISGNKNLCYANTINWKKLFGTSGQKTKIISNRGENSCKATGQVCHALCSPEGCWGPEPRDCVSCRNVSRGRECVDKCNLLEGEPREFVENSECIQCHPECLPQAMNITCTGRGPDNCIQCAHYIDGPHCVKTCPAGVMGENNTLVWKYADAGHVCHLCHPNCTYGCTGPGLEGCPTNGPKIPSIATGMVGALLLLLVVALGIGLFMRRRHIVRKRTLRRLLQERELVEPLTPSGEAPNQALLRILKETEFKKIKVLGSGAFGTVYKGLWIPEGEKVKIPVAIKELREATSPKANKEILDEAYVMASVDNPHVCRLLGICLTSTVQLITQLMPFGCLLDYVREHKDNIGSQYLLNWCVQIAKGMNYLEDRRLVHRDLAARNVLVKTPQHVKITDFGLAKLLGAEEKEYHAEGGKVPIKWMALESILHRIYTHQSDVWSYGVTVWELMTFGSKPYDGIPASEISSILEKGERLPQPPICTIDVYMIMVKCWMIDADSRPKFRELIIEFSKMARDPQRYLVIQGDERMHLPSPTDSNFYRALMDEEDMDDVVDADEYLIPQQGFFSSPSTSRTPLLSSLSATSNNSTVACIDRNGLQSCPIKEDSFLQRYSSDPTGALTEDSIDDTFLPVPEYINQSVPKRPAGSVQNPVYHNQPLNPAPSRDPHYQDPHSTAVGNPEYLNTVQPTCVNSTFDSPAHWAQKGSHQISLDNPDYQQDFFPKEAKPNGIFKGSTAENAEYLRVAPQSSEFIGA

The term IC50 denotes the point on the concentration scale where inhibition reaches its midpoint. A higher IC50 goes with lower potency. In the case of `O=c1[nH]ccc(NC[C@@H](O)c2cccc(Br)c2)c1-c1nc2cc3cn[nH]c3cc2[nH]1`, the IC50 against CDK2 and against EGFR was < 25 µM in each case.

For the compound `Cc1nc(N2CCNCC2)nc2[nH]c(-c3c(NC[C@@H](O)c4cccc(Cl)c4)cc[nH]c3=O)nc12`, the IC50 against CDK2 and on EGFR was < 25 µM each time.

Take `Cc1nc(N2CCN(CC3CC3)CC2)nc2[nH]c(-c3c(NC[C@@H](O)c4cccc(Cl)c4)cc[nH]c3=O)nc12`: the IC50 at CDK2 and on EGFR was < 25 µM throughout.

As for `CCC(C)CN1CCN(c2nc(C)c3nc(-c4c(NC[C@@H](O)c5cccc(Cl)c5)cc[nH]c4=O)[nH]c3n2)CC1` (some centres not stated), the concentration for half-maximal inhibition (IC50) at CDK2 and at EGFR was < 25 µM each time.

For the compound `O=c1[nH]ccc(NC[C@@H](O)c2cccc(Cl)c2)c1-c1nc2cc3cn[nH]c3cc2[nH]1`, the half-inhibitory concentration (IC50) against CDK2 and against EGFR was < 25 µM each time.

With `Cc1nc(N2CCN(Cc3ncc[nH]3)CC2)nc2[nH]c(-c3c(NC[C@@H](O)c4cccc(Cl)c4)cc[nH]c3=O)nc12`, the concentration for half-maximal inhibition (IC50) against CDK2 and on EGFR was < 25 µM throughout.

As for `Cc1nc(N2CCN(Cc3nccn3C)CC2)nc2[nH]c(-c3c(NC[C@@H](O)c4cccc(Cl)c4)cc[nH]c3=O)nc12`, the IC50 on CDK2 and at EGFR was < 25 µM in each case.

On to `O=c1[nH]ccc(NCC(O)c2cccc(Cl)c2)c1-c1nc2cnccc2[nH]1` (configuration not stated), for which the IC50 on CDK2 and on EGFR was < 25 µM in each case.

`COc1ccc(C(O)CNc2cc[nH]c(=O)c2-c2nc3cnccc3[nH]2)cc1Br` (configuration not stated): the half-maximal inhibitory concentration (IC50) on CDK2 and at EGFR was < 25 µM each time.

Take `Cc1nc(N2CCN(Cc3cccn3C)CC2)nc2[nH]c(-c3c(NC[C@@H](O)c4cccc(Cl)c4)cc[nH]c3=O)nc12`: the IC50 on CDK2 and against EGFR was < 25 µM in each case.

For `O=c1[nH]c2cc3nc(-c4c(NC[C@@H](O)c5cccc(Cl)c5)cc[nH]c4=O)[nH]c3cc2[nH]1`, the IC50 against CDK2 and on EGFR was < 25 µM each time.

With `COc1ccc([C@H](O)CNc2cc[nH]c(=O)c2-c2nc3cc4cn[nH]c4cc3[nH]2)cc1Br`, the half-maximal inhibitory concentration (IC50) on CDK2 and against EGFR was < 25 µM each time.

`CCOC(=O)C1CC1CN1CCN(c2nc(C)c3nc(-c4c(NC[C@@H](O)c5cccc(Cl)c5)cc[nH]c4=O)[nH]c3n2)CC1` (some centres not stated): the IC50 on CDK2 and at EGFR was < 25 µM each time.

In the case of `Cc1nc(N2CCN(COCc3ccccc3)CC2)nc2[nH]c(-c3c(NC[C@@H](O)c4cccc(Cl)c4)cc[nH]c3=O)nc12`, the 50% inhibitory concentration (IC50) against CDK2 and against EGFR was < 25 µM each time.

Turning to `O=c1[nH]ccc(NCC(O)c2cccc(Br)c2)c1-c1nc2cnccc2[nH]1` (configuration not stated), the half-maximal inhibitory concentration (IC50) at CDK2 and at EGFR was < 25 µM in each case.

`Cc1nc(N2CCOCC2)nc2[nH]c(-c3c(NC[C@@H](O)c4cccc(Cl)c4)cc[nH]c3=O)nc12`: the half-maximal inhibitory concentration (IC50) at CDK2 and on EGFR was < 25 µM throughout.

Consider `Cc1nc(N2CCN(C(=O)OC(C)(C)C)CC2)nc2[nH]c(-c3c(NC[C@@H](O)c4cccc(Cl)c4)cc[nH]c3=O)nc12`, for which the 50% inhibitory concentration (IC50) on CDK2 and at EGFR was < 25 µM each time.

Consider `CCN1CCN(c2nc(C)c3nc(-c4c(NC[C@@H](O)c5cccc(Cl)c5)cc[nH]c4=O)[nH]c3n2)CC1`, for which the half-maximal inhibitory concentration (IC50) against CDK2 and against EGFR was < 25 µM throughout.

Regarding `Cc1nc(N2CCN(Cc3cccc(F)c3)CC2)nc2[nH]c(-c3c(NC[C@@H](O)c4cccc(Cl)c4)cc[nH]c3=O)nc12`, the IC50 against CDK2 and on EGFR was < 25 µM each time.

As for `Cc1nc(N2CCN(Cc3nccs3)CC2)nc2[nH]c(-c3c(NC[C@@H](O)c4cccc(Cl)c4)cc[nH]c3=O)nc12`, the IC50 against CDK2 and against EGFR was < 25 µM throughout.

For `Cc1nc(N2CCN(Cc3ccccn3)CC2)nc2[nH]c(-c3c(NC[C@@H](O)c4cccc(Cl)c4)cc[nH]c3=O)nc12`, the IC50 against CDK2 and against EGFR was < 25 µM throughout.
